Measured values published in patent publication US9290459B1, “Substituted bicyclic dihydropyrimidinones and their use as inhibitors of neutrophil elastase activity” (Boehringer Ingelheim International GmbH, priority 2013, dated 2016).

target: Human neutrophil elastase (Homo sapiens (Human), UniProt P08246); test: Human Neutrophil Elastase Assay; type: biochemical; conditions: human neutrophil elastase, substrate MeOSuc-Ala-Ala-Pro-Val-AMC 250 μM, pH 7.5; read-out: IC50
Sequence (P08246 30-247): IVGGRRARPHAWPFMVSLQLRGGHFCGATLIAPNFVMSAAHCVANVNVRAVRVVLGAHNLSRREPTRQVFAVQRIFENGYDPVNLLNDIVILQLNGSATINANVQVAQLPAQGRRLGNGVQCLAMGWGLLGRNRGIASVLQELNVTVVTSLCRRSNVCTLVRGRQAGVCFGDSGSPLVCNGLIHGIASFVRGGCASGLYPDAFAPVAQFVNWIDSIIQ

Row | SMILES | IC50 [nM]
1 | CS(=O)(=O)c1cc(C#N)ccc1[C@@H]1C2=C(CCC2=O)N(c2cccc(C(F)(F)F)c2)C(=O)N1C(=O)NC1CCOCC1 [Example 47.15] | < 1
2 | N#Cc1ccc(C2C3=C(CCC3=O)N(c3cccc(C(F)(F)F)c3)C(=O)N2C(=O)NC2CCS(=N)(=O)CC2)cc1 (stereo not drawn) [Example 44, 4-(4-Cyanophenyl)-2,5-dioxo-N-(1-imino-1-oxo-hexahydro-1λ^6-thiopyran-4-yl)-1-(3-(trifluoromethyl)phenyl)-4,5,6,7-tetrahydro-1H-cyclopenta[d]pyrimidine-3(2H)-carboxamide] | < 1
3 | CCS(=O)(=O)c1cc(C#N)ccc1C1C2=C(CCC2=O)N(c2cccc(C(F)(F)F)c2)C(=O)N1C (stereo not drawn) [Example 27.3] | 1.2
4 | CCNC(=O)N1C(=O)N(c2cccc(C(F)(F)F)c2)C2=C(C(=O)CC2)C1c1ccc(C#N)cc1F (stereo not drawn) [Example 49.1] | 1.2
5 | COc1cc(C#N)ccc1C1NC(=O)N(c2cccc(C(F)(F)F)c2)C2=C1C(=O)CC2 (stereo not drawn) [Example 15.1] | 42.1
6 | CNC(=O)N1C(=O)N(c2cccc(C(F)(F)F)c2)C2=C(C(=O)CC2)C1c1ccc(C#N)cc1C (stereo not drawn) [Example 50.2] | < 1
7 | N#Cc1ccc(C2C3=C(CCC3=O)N(c3cccc(C(F)(F)F)c3)C(=O)N2CC(N)=O)cc1 (stereo not drawn) [Example 5, 2-(4-(4-Cyanophenyl)-2,5-dioxo-1-(3-(trifluoromethyl)phenyl)-6,7-dihydro-1H-cyclopenta[d]pyrimidin-3(2H,4H,5H)-yl)acetamide] | 11.2
8 | N#Cc1ccc(C2C3=C(CCC3=O)N(c3cccc(C(F)(F)F)c3)C(=O)N2CC(=O)O)cc1 (stereo not drawn) [Example 4, 2-(4-(4-Cyanophenyl)-2,5-dioxo-1-(3-(trifluoromethyl)phenyl)-6,7-dihydro-1H-cyclopenta[d]pyrimidin-3(2H,4H,5H)-yl)acetic acid] | 10.9
9 | CSc1cc(C#N)ccc1C1C2=C(CCC2=O)N(c2cccc(C(F)(F)F)c2)C(=O)N1C (stereo not drawn) [Example 27.1, 4-(3-methyl-2,5-dioxo-1-(3-(trifluoromethyl)phenyl)-2,3,4,5,6,7-hexahydro-1H-cyclopenta[d]pyrimidin-4-yl)-3-(methylthio)benzonitrile] | 4.6
10 | COc1cc(C#N)ccc1C1C2=C(CCC2=O)N(c2cccc(C(F)(F)F)c2)C(=O)N1C (stereo not drawn) [Example 26.3] | 9.5
11 | CNC(=O)N1C(=O)N(c2cccc(C(F)F)c2)C2=C(C(=O)CC2)C1c1ccc(C#N)cc1S(C)(=O)=O (stereo not drawn) [Example 53.1] | < 1
12 | CNC(=O)N1C(=O)N(c2cccc(C(F)(F)F)c2)C2=C(C(=O)CC2)C1c1ccc(C#N)cc1Cl (stereo not drawn) [Example 50.4] | 1.2
13 | CNC(=O)N1C(=O)N(c2cccc(C(F)(F)F)c2)C2=C(C(=O)CC2)C1c1ccc(C#N)cc1Br (stereo not drawn) [Example 50.6] | 1.2
14 | N#Cc1ccc(C2C3=C(CCC3=O)N(c3cccc(C(F)(F)F)c3)C(=O)N2C(N)=O)cc1 (stereo not drawn) [Example 40, 4-(4-Cyanophenyl)-2,5-dioxo-1-(3-(trifluoromethyl)phenyl)-4,5,6,7-tetrahydro-1H-cyclopenta[d]pyrimidine-3(2H)-carboxamide] | 2.2
15 | CN1C(=O)N(c2cccc(C(F)(F)F)c2)C2=C(C(=O)CC2)C1c1ccc(C#N)cc1Cl (stereo not drawn) [Example 26.4] | 26.2
16 | N#Cc1ccc(C2NC(=O)N(c3cccc(C(F)F)c3)C3=C2C(=O)CC3)cc1 (stereo not drawn) [Example 11, 4-(1-(3-(Difluoromethyl)phenyl)-2,5-dioxo-2,3,4,5,6,7-hexahydro-1H-cyclopenta[d]-pyrimidin-4-yl)benzonitrile] | 37.4
17 | CCNC(=O)N1C(=O)N(c2cccc(C(F)(F)F)c2)C2=C(C(=O)CC2)C1c1ccc(C#N)cc1Cl (stereo not drawn) [Example 51.2] | < 1
18 | N#Cc1ccc([C@@H]2NC(=O)N(c3cccc(C(F)(F)F)c3)C3=C2C(=O)CC3)nc1 [Example 15.3B, (R)-6-(2,5-Dioxo-1-(3-(trifluoromethyl)phenyl)-2,3,4,5,6,7-hexahydro-1H-cyclopenta[d]pyrimidin-4-yl)nicotinonitrile] | 1720
19 | CS(=O)(=O)c1cc(C#N)ccc1[C@@H]1C2=C(CCC2=O)N(c2cccc(C(F)(F)F)c2)C(=O)N1C(=O)NCC1(O)CCC1 [Example 47.17] | < 1
20 | CS(=O)(=O)c1cc(C#N)ccc1C1C2=C(CCC2=O)N(c2cccc(C(F)(F)F)c2)C(=O)N1CC1CCOCC1 (stereo not drawn) [Example 24.5] | 1.7
21 | CCNC(=O)N1C(=O)N(c2cccc(C(F)F)c2)C2=C(C(=O)CC2)C1c1ccc(C#N)cc1S(C)(=O)=O (stereo not drawn) [Example 53.2] | < 1

Row | SMILES | IC50 [nM]
22 | CS(=O)(=O)c1cc(C#N)ccc1[C@@H]1NC(=O)N(c2cccc(C(F)F)c2)C2=C1C(=O)CC2 [Example 15.4B, (R)-4-(1-(3-(Difluoromethyl)phenyl)-2,5-dioxo-2,3,4,5,6,7-hexahydro-1H-cyclopenta[d]pyrimidin-4-yl)-3-(methylsulfonyl)benzonitrile] | 57.7
23 | CNC(=O)N1C(=O)N(c2cccc(C(F)(F)F)c2)C2=C(C(=O)CC2)C1c1ccc(C#N)cc1F (stereo not drawn) [Example 49, 4-(4-Cyano-2-fluorophenyl)-N-methyl-2,5-dioxo-1-(3-(trifluoromethyl)phenyl)-4,5,6,7-tetrahydro-1H-cyclopenta[d]pyrimidine-3(2H)-carboxamide] | 1.8
24 | CS(=O)(=O)c1cc(C#N)ccc1[C@@H]1C2=C(CCC2=O)N(c2cccc(C(F)(F)F)c2)C(=O)N1C(=O)NCC1CC(O)C1 (stereo partly drawn) [Example 47.16] | < 1
25 | COC(=O)CN1C(=O)N(c2cccc(C(F)(F)F)c2)C2=C(C(=O)CC2)C1c1ccc(C#N)cc1 (stereo not drawn) [Example 3, Methyl 2-(4-(4-Cyanophenyl)-2,5-dioxo-1-(3-(trifluoromethyl)phenyl)-6,7-dihydro-1H-cyclopenta[d]pyrimidin-3(2H,4H,5H)-yl)acetate] | 17
26 | CS(=O)(=O)N1C(=O)N(c2cccc(C(F)(F)F)c2)C2=C(C(=O)CC2)C1c1ccc(C#N)cc1 (stereo not drawn) [Example 9, 4-(3-(Methylsulfonyl)-2,5-dioxo-1-(3-(trifluoromethyl)phenyl)-2,3,4,5,6,7-hexahydro-1H-cyclopenta[d]pyrimidin-4-yl)benzonitrile] | 5.1
27 | CS(=O)(=O)c1cc(C#N)ccc1C1C2=C(CCC2=O)N(c2ccnc(C(F)(F)F)c2)C(=O)N1S(C)(=O)=O (stereo not drawn) [Example 39, 3-(Methylsulfonyl)-4-(3-(methylsulfonyl)-2,5-dioxo-1-(2-(trifluoromethyl)pyridin-4-yl)-2,3,4,5,6,7-hexahydro-1H-cyclopenta[d]pyrimidin-4-yl)benzonitrile] | 7
28 | CS(=O)(=O)c1cc(C#N)ccc1C1C2=C(CCC2=O)N(c2cccc(C(F)(F)F)c2)C(=O)N1S(C)(=O)=O (stereo not drawn) [Example 37.3] | 1.9
29 | N#Cc1ccc(C2NC(=O)N(c3cccc(C(F)(F)F)c3)C3=C2C(=O)CC3)c(Br)c1 (stereo not drawn) [Example 13, 3-Bromo-4-(2,5-dioxo-1-(3-(trifluoromethyl)phenyl)-2,3,4,5,6,7-hexahydro-1H-cyclopenta[d]pyrimidin-4-yl)benzonitrile] | 17.9
30 | CC(C)NC(=O)N1C(=O)N(c2ccnc(C(F)(F)F)c2)C2=C(C(=O)CC2)C1c1ccc(C#N)cc1 (racemic) [Example 54.4] | 2.4
31 | N#Cc1ccc(C2NC(=O)N(c3cccc(C(F)(F)F)c3)C3=C2C(=O)CC3)nc1 (stereo not drawn) [Example 15.3, 6-(2,5-dioxo-1-(3-(trifluoromethyl)phenyl)-2,3,4,5,6,7-hexahydro-1H-cyclopenta[d]pyrimidin-4-yl)nicotinonitrile] | 106
32 | CS(=O)(=O)c1cc(C#N)ccc1C1C2=C(CCC2=O)N(c2cccc(C(F)(F)F)c2)C(=O)N1CCC1CCOCC1 (stereo not drawn) [Example 24.6] | < 1
33 | N#Cc1ccc(C2C3=C(CCC3=O)N(c3cccc(C(F)(F)F)c3)C(=O)N2C(=O)NC2CC[S+]([O-])CC2)cc1 (stereo not drawn) [Example 43, 4-(4-Cyanophenyl)-2,5-dioxo-N-(1-oxo-hexahydro-1λ^4-thiopyran-4-yl)-1-(3-(trifluoro-methyl)phenyl)-4,5,6,7-tetrahydro-1H-cyclopenta[d]pyrimidine-3(2H)-carboxamide] | < 1
34 | CN(C)C(=O)N1C(=O)N(c2cccc(C(F)(F)F)c2)C2=C(C(=O)CC2)C1c1ccc(C#N)cc1 (stereo not drawn) [Example 7, 4-(4-Cyanophenyl)-N,N-dimethyl-2,5-dioxo-1-(3-(trifluoromethyl)phenyl)-4,5,6,7-tetrahydro-1H-cyclopenta[d]pyrimidine-3(2H)-carboxamide] | 124
35 | CS(=O)(=O)c1cc(C#N)ccc1[C@@H]1C2=C(CCC2=O)N(c2cccc(C(F)(F)F)c2)C(=O)N1S(C)(=O)=O [Example 37, 3-(Methylsulfonyl)-4-(3-(methylsulfonyl)-2,5-dioxo-1-(3-(trifluoromethyl)phenyl)-2,3,4,5,6,7-hexahydro-1H-cyclopenta[d]pyrimidin-4-yl)benzonitrile] | < 1
36 | COCCNC(=O)N1C(=O)N(c2cccc(C(F)(F)F)c2)C2=C(C(=O)CC2)C1c1ccc(C#N)cc1F (stereo not drawn) [Example 49.2] | 1.3
37 | CCS(=O)(=O)c1cc(C#N)ccc1[C@@H]1NC(=O)N(c2cccc(C(F)(F)F)c2)C2=C1C(=O)CC2 [Example 14B, (R)-4-(2,5-Dioxo-1-(3-(trifluoromethyl)phenyl)-2,3,4,5,6,7-hexahydro-1H-cyclopenta[d]pyrimidin-4-yl)-3-(ethylsulfonyl)benzonitrile] | 33
38 | CNC(=O)N1C(=O)N(c2ccnc(C(F)(F)F)c2)C2=C(C(=O)CC2)C1c1ccc(C#N)cc1 (racemic) [Example 54.1] | 4.9
39 | N#Cc1ccc(C2NC(=O)N(c3ccnc(C(F)(F)F)c3)C3=C2C(=O)CC3)cc1 (stereo not drawn) [Example 15.5, 4-(2,5-Dioxo-1-(2-(tri-fluoromethyl)pyridin-4-yl)-2,3,4,5,6,7-hexahydro-1H-cyclopenta[d]pyrimidin-4-yl)benzonitrile] | 110
40 | Cc1cc(C#N)ccc1C1C2=C(CCC2=O)N(c2cccc(C(F)(F)F)c2)C(=O)N1C (stereo not drawn) [Example 26.2] | 6.4
41 | CNC(=O)N1C(=O)N(c2ccnc(C(F)(F)F)c2)C2=C(C(=O)CC2)C1c1ccc(C#N)cc1S(C)(=O)=O (racemic) [Example 56.1] | < 1
42 | CN1C(=O)N(c2cccc(C(F)F)c2)C2=C(C(=O)CC2)C1c1ccc(C#N)cc1 (stereo not drawn) [Example 26, 4-(1-(3-(Difluoromethyl)phenyl)-3-methyl-2,5-dioxo-2,3,4,5,6,7-hexahydro-1H-cyclopenta[d]pyrimidin-4-yl)benzonitrile] | 9.4
